# Test results: publication PMC5534107, “Sensitization of ASIC3 by proteinase-activated receptor 2 signaling contributes to acidosis-induced nociception” (Journal of Neuroinflammation, 2017)
# Columns and labels:
# [1] = tested on: ASIC3 currents in CHO cells co-expressing ASIC3 and PAR2; assay: Whole-cell patch clamp of proton-gated currents (I pH 6.6) in CHO cells co-expressing ASIC3 and PAR2; type: cell-based, Chinese hamster
# Description: ASIC3, ASIC1a, ASIC1b, ASIC2b, and PAR2 complementary DNAs (cDNAs) were used for heterologous expression in CHO cells as described previously (Wang et al., 2013). In brief, CHO cells were cultured at 37 °C in a humidified atmosphere of 5% CO2 and […] and passaged twice a week. Transient transfection of CHO cells was performed using HilyMax liposome transfection reagent (Dojindo Laboratories). CHO cells were maintained in F-12 Nutrient Mixture (added 1.176 g of NaHCO3/L medium) supplemented with 10% fetal bovine serum and 1% gluta-MAXTM-1 (100×; Invitrogen). When ASIC3 and PAR2 cDNAs were co-transfected, the ratio was kept at 1:1. All plasmids used contained, in addition to the desired ASIC3 cDNA, the coding sequence for enhanced green fluorescent protein to aid identification of transfected cells. Electrophysiological measurements were performed 24–48 h after transfection.
# Whole-cell patch clamp and voltage clamp recordings were carried out at room temperature (22–25 °C) using a MultiClamp-700B amplifier and Digidata-1440A A/D converter (Axon Instruments, CA, USA). Recording pipettes were pulled using a Sutter P-97 puller (Sutter Instruments, CA, USA). The micropipettes were filled with internal solution containing (mM) KCl 140, MgCl2 2.5, HEPES 10, EGTA 11, and ATP 5; its pH was adjusted to 7.2 with KOH, and osmolarity was adjusted to 310 mOsm/L with sucrose. Cells were bathed in an external solution containing (mM) NaCl 150, KCl 5, CaCl2 2.5, MgCl2 2, HEPES 10, D-glucose 10; its osmolarity was adjusted to 330 mOsm/L with sucrose and its pH to 7.4. The resistance of the recording pipette was in the range of 3–6 MΩ. A small patch of membrane underneath the tip of the pipette was aspirated to form a giga seal, and then, a negative pressure was applied to rupture it, thus establishing a whole-cell configuration. The series resistance was compensated for by 70–80%. The adjustment of capacitance compensation was also done before recording the membrane currents. The membrane voltage was maintained at −60 mV in all voltage clamp experiments unless otherwise specified. Current clamp recordings were obtained by switching to current clamp mode after a stable whole-cell configuration was formed in voltage clamp mode. Only cells with a stable resting membrane potential (more negative than −50 mV) were used in the study. Signals were sampled at 10 to 50 kHz and filtered at 2 to 10 kHz, and the data were stored in compatible PC computer for off-online analysis using the pCLAMP 10 acquisition software (Axon Instruments, CA, USA).
# Drugs purchased from Sigma and used in the experiments include hydrochloric acid, 2-furoyl-LIGRLO-NH2 (a PAR2-activating peptide (PAR2-AP)), trypsin, FSLLRY-NH2, APETx2, and capsazepine. Different pH values were configured with hydrochloric acid and external solution. All drugs were dissolved daily in the external solution just before use and held in a linear array of fused silica tubes (o.d./i.d. = 500 μm/200 μm) connected to a series of independent reservoirs. The application pipette tips were positioned ∼30 μm away from the recorded neurons. The application of each drug was driven by gravity and controlled by the corresponding valve, and rapid solution exchange could be achieved within about 100 ms by shifting the tubes horizontally with a PC-controlled micromanipulator. Cells were constantly bathed in normal external solution flowing from one tube connected to a larger reservoir between drug applications. In some experiments where GDP-β-S (Sigma), U-73122(Sigma), and GF109203X (RBI) were applied for intracellular dialysis through recording patch pipettes, they were dissolved in the internal solution before use. To ensure that the cell interior was perfused with the dialysis drug, there was at least a 30-min interval between the establishment of whole-cell access and the current measurement. […]
# rats = assay: Nociceptive behavior (flinches) induced by intraplantar acetic acid in rats; type: in vivo, rat; conditions: capsazepine 100 μM, n = 10
# Description: Rats were placed in a 30 × 30 × 30 cm Plexiglas chamber and allowed to habituate for at least 30 min before nociceptive behavior experiments. A blind experiment was carried out. Separate groups of rats were coded and pretreated with 20 μl capsazepine (100 μM) together with vehicle and different dosages of PAR2-AP, FSLLRY-NH2, or APETx2 in the ipsilateral hind paw before injection of acetic acid. […] And nociceptive behavior (that is, number of flinches) was counted over a 5-min period starting immediately after the injection.
# We finally ascertain whether PAR2-AP facilitates pain-related behaviors through interacting with ASIC3 in vivo. Acetic acid (0.6%) was injected into the right hind paws of rats and measured the number of flinches that the animals spent licking and/or lifting the injected paw. Intraplantar injection of acetic acid elicits an intense flinch/shaking response which mainly occurred during 0–5 min after injection of acetic acid. […] However, the low dose (1 μg) of PAR2-AP had no effect on the acidosis-induced nocifensive behaviors (Bonferroni’s post hoc test, P > 0.1, n = 10). In addition, the exacerbating effect of 10 μg PAR2-AP on acidosis-induced nocifensive behaviors was blocked by co-administration of 20 μg FSLLRY-NH2, a selective PAR2 antagonist (Bonferroni’s post hoc test, P < 0.01, compared with 10 μg PAR2-AP alone, n = 10; Fig. 6a).
substance,measurement,setting,value
2-furoyl-LIGRLO-NH2 [PAR2-AP],maximum effect (potentiation of ASIC3 currents),"[1]; 10^−4 M, pre-applied 1 min, I pH 6.6, n = 9",66.6 ± 7.5%
same,increase of peak amplitude of I pH 6.6 after pretreatment with agonist alone,"[1]; 10^−5 M for 1 min, n = 10",61.6 ± 4.6%
same,EC50,"[1]; I pH 6.6 for 5 s, PAR2-AP 10^−9–10^−4 M pre-applied 1 min, −60 mV, mean ± SEM of 8 to 10 cells, read-out: EC50 of PAR2-AP for potentiation of peak amplitude of proton-gated (ASIC3) currents",290 nM
same,threshold pH value of proton concentration–response curve in presence vs absence of PAR2-AP,[1]; PAR2-AP 10^−5 M,no significant difference
same,increase in the maximal current response to protons,"[1]; PAR2-AP 10^−5 M pre-applied, proton concentration–response curve, 8 to 10 cells",58.7 ± 3.8%
same,Hill coefficient of proton concentration–response curve in the presence of PAR2-AP,"[1]; PAR2-AP 10^−5 M, 2.36 ± 0.13 in its absence, P > 0.1",2.28 ± 0.15
same,Hill coefficient of steady-state desensitization with PAR2-AP,"[1]; PAR2-AP 10^−5 M, 3.58 ± 0.29 without",3.65 ± 0.35
same,pH50 (pH for half-maximal current response) with PAR2-AP pretreatment,"[1]; PAR2-AP 10^−5 M, 6.70 ± 0.02 without, P > 0.1",6.71 ± 0.04
same,pH50 for steady-state desensitization in the presence of PAR2-AP,"[1]; PAR2-AP 10^−5 M, conditioning pH 7.6 to 6.6 for 2 min, then pH 6.0, 7.16 ± 0.01 without, P < 0.05, 6 to 8 cells",7.05 ± 0.02
same,Hill coefficient of the concentration–response curve for PAR2-AP,"[1]; potentiation of I pH 6.6, pre-applied 1 min",0.76
same,"effect on acidosis-induced nocifensive behaviors (number of flinches), low dose","rats; PAR2-AP 1 μg intraplantar, 5 min before acetic acid 0.6%, 20 μl, flinches over 5 min, P > 0.1",no effect
same,"acetic acid-induced number of flinches vs acetic acid alone, medium dose","rats; PAR2-AP 3 μg intraplantar, P < 0.05",significantly greater
same,"acetic acid-induced number of flinches vs acetic acid alone, high dose","rats; PAR2-AP 10 μg intraplantar, P < 0.01",significantly greater
